Source: patent US9139532B2, “Pyrazolyl guanidine F1F0-atpase inhibitors and therapeutic uses thereof” (Lycera Corporation, priority 2010, dated 2015)
Like-named read-outs stand apart in the source and are kept apart here.

Legend:
[1] = target: T1, F1F0-ATPase (Bos taurus, UniProt P13621); assay: Inhibition of F1F0-ATPase activity in synthesizing ATP; format: biochemical; details: inhibition of ATP synthesis by F1F0-ATPase; read-out: ATP Syn IC50
T1 construct: from tissue

[2] = system: Ramos cells; assay: Cytotoxicity in Ramos cells; format: cell-based; details: cytotoxicity in Ramos cells, read-out: Ramos Cell EC50

Row | SMILES | IC50 [1] [µM] | EC50 ([2]; Homo sapiens) [µM] | EC50 [2] [µM]
1 | CC(C)N/C(=N/C(=O)c1ccc(Cl)cc1)Nc1cc(C(F)F)[nH]n1 [Compound A-55] | < 10 | > 10 | –
2 | O=C(/N=C(/NCC(F)(F)F)Nc1cc(C(F)(F)F)[nH]n1)c1ccc(Cl)cc1 [Compound A-5] | < 10 | < 10 | –
3 | Cc1ccc(C(=O)N=C(NCc2ccc(F)cc2Cl)Nc2cc(C(F)(F)F)n[nH]2)cc1F [Compound A-553] | < 10 | < 10 | –
4 | O=C(/N=C(/NCc1ccccc1C(F)(F)F)Nc1cc(C(F)(F)F)n[nH]1)c1ccc(F)c(F)c1 [Compound A-8] | < 10 | < 10 | –
5 | CCC(C)(C)N/C(=N/C(=O)c1ccc(Cl)cc1)Nc1cc(C(F)(F)F)[nH]n1 [Compound A-123] | < 10 | < 10 | –
6 | CC(C)(C)N/C(=N/C(=O)c1ccc(Cl)c(F)c1)Nc1cc(C(F)F)[nH]n1 [Compound A-65] | < 10 | < 10 | –
7 | O=C(/N=C(/NCc1ccc(F)cc1Cl)Nc1cc(-c2ccc(F)cc2)n[nH]1)c1cccc(F)c1 [Compound A-457] | < 10 | – | < 10
8 | COCC(C)NC(=NC(=O)c1ccc(Cl)c(F)c1)Nc1cc(-c2cc(F)cc(F)c2)n[nH]1 (centres unmarked) [Compound A-273] | < 10 | – | < 10
9 | CC(C)N/C(=N/C(=O)c1ccc(C(F)(F)F)cc1)Nc1cc(C(F)(F)F)n[nH]1 [Compound A-90] | < 10 | < 10 | –
10 | COc1ccc(C(=O)N=C(NCc2ccc(F)cc2Cl)Nc2cc(C(F)(F)F)n[nH]2)cc1 [Compound A-541] | < 10 | < 10 | –
11 | CCOCCCNC(=NC(=O)c1ccc(Cl)cc1)Nc1cc(-c2ccc(F)cc2)n[nH]1 [Compound A-278] | < 10 | > 10 | –
12 | O=C(/N=C(\Nc1cc(C(F)(F)F)[nH]n1)NC(C1CC1)C1CC1)c1ccc(Cl)cc1 [Compound A-7] | < 10 | < 10 | –
13 | O=C(N=C(Nc1cc(-c2cc(F)cc(F)c2)n[nH]1)NC1CCC1)c1ccc(Cl)cc1 [Compound A-231] | < 10 | < 10 | –
14 | O=C(/N=C(\Nc1cc(C(F)(F)F)[nH]n1)NC1CCCCCC1)c1ccc(C(F)(F)F)cc1 [Compound A-14] | < 10 | < 10 | –
15 | CC(C)(C)N/C(=N/C(=O)c1ccc(C(F)(F)F)nc1)Nc1cc(C(F)(F)F)[nH]n1 [Compound A-79] | < 10 | < 10 | –
16 | CC(C)CN/C(=N/C(=O)c1ccc(F)c(F)c1)Nc1cc(-c2cc(F)cc(Cl)c2)n[nH]1 [Compound A-287] | < 10 | – | < 10
17 | CCC(C)(C)N/C(=N/C(=O)c1cccc(C(F)(F)F)c1)Nc1cc(C(F)(F)F)[nH]n1 [Compound A-78] | < 10 | < 10 | –
18 | CC(C)CNC(=NC(=O)c1ccc(Cl)cc1)Nc1cc(-c2cc(F)cc(F)c2)n[nH]1 [Compound A-233] | < 10 | < 10 | –
19 | CC(C)(C)NC(=NC(=O)c1ccc(Cl)cc1)Nc1cc(-c2ccc(Cl)cc2)n[nH]1 [Compound A-132] | < 10 | < 10 | –
20 | CCC(C)(C)N/C(=N/C(=O)c1ccc(Cl)c(F)c1)Nc1cc(C(F)(F)F)n[nH]1 [Compound A-116] | < 10 | < 10 | –
21 | Cc1ccccc1CN/C(=N/C(=O)c1cc(F)c(F)c(F)c1)Nc1cc(-c2ccc(F)cc2)[nH]n1 [Compound A-397] | < 10 | – | < 10
22 | CC(C)(C)N/C(=N/C(=O)c1cccc(C#N)c1)Nc1cc(-c2cc(F)cc(F)c2)n[nH]1 [Compound A-315] | < 10 | – | > 10
23 | Cc1ccc(-c2cc(N/C(=N\C(=O)c3ccc(F)c(F)c3)NC3CCCC3)[nH]n2)cc1F [Compound A-316] | < 10 | – | < 10

Row | SMILES | IC50 [1] [µM] | EC50 ([2]; Homo sapiens) [µM] | EC50 [2] [µM]
24 | CC(C)CN/C(=N/C(=O)c1cccc(F)c1)Nc1cc(-c2cc(F)cc(F)c2)n[nH]1 [Compound A-368] | < 10 | – | < 10
25 | O=C(N=C(Nc1cc(-c2ccccc2)[nH]n1)NC1CCOCC1)c1ccc(C(F)(F)F)cc1 [Compound A-466] | > 10 | > 10 | –
26 | O=C(/N=C(/NCc1ccccc1C(F)(F)F)Nc1cc(C(F)(F)F)n[nH]1)c1ccc(Cl)cc1 [Compound A-9] | < 10 | < 10 | –
27 | CCC(COC)N/C(=N/C(=O)c1ccc(F)c(F)c1)Nc1cc(-c2ccc(F)cc2)n[nH]1 (centres unmarked) [Compound A-268] | < 10 | – | < 10
28 | CC(N/C(=N/C(=O)c1ccc(Cl)cc1)Nc1cc(C(F)(F)F)[nH]n1)c1ccc(Cl)cc1 (centres unmarked) [Compound A-36] | < 10 | < 10 | –
29 | CCC(C)N/C(=N/C(=O)c1cccc(C#N)c1)Nc1cc(-c2ccc(Cl)cc2)n[nH]1 (centres unmarked) [Compound A-306] | < 10 | – | < 10
30 | O=C(N=C(Nc1cc(F)cc(Cl)c1)Nc1cc(-c2ccc(Cl)cc2)n[nH]1)c1ccc(Cl)c(F)c1 [Compound A-149] | < 10 | < 10 | –
31 | Cc1cc(N/C(=N\C(=O)c2ccc(F)c(F)c2)NC2CCCC2)n[nH]1 [Compound A-188] | < 10 | – | > 10
32 | O=C(/N=C(/NCc1ccc(Cl)c(F)c1)Nc1cc(C(F)(F)F)[nH]n1)c1ccc(Cl)cc1 [Compound A-32] | < 10 | < 10 | –
33 | CC(C)(C)N/C(=N/C(=O)c1ccc(C(F)(F)F)cc1)Nc1cc(-c2cccc(O)c2)n[nH]1 [Compound A-564, (Z)—N-((tert-Butylamino)((3-(3-hydroxyphenyl)-1H-pyrazol-5-yl)amino)methylene)-4-(trifluoromethyl)benzamide] | < 10 | < 10 | –
34 | Cc1ccc(-c2cc(N/C(=N\C(=O)c3ccc(C(F)(F)F)cc3)NC3CCC3)[nH]n2)cc1F [Compound A-329] | < 10 | – | < 10
35 | N#Cc1cccc(C(=O)/N=C(\Nc2cc(-c3ccc(F)cc3)[nH]n2)NC2CCCC2)c1 [Compound A-520] | < 10 | – | < 10
36 | COCC(C)(C)NC(=NC(=O)c1cccc(C#N)c1)Nc1cc(-c2ccc(F)cc2)n[nH]1 [Compound A-504] | < 10 | – | –
37 | O=C(/N=C(/NCc1cc(F)c(F)c(F)c1)Nc1cc(C(F)(F)F)[nH]n1)c1ccc(F)c(F)c1 [Compound A-39] | < 10 | – | –
38 | CC1(N/C(=N/C(=O)c2ccc(Cl)c(F)c2)Nc2cc(-c3cc(F)cc(F)c3)n[nH]2)CCCC1 [Compound A-355] | – | – | > 10
39 | CC(C)(C)N/C(=N/C(=O)c1ccc(Cl)c(F)c1)Nc1cc(-c2cc(F)cc(F)c2)n[nH]1 [Compound A-354] | – | – | < 10
40 | CC(C)(N/C(=N/C(=O)c1ccc(Cl)c(F)c1)Nc1cc(-c2cc(F)cc(F)c2)n[nH]1)C(F)(F)F [Compound A-357] | – | – | > 10
41 | COCCOCC(C)(C)N/C(=N/C(=O)c1ccc(F)cc1)Nc1cc(-c2ccc(F)cc2)n[nH]1 [Compound A-507] | – | – | < 10
42 | COC(=O)c1cc(N/C(=N\C(=O)c2ccc(C(F)(F)F)cc2)NC(C)(C)C)[nH]n1 [Compound A-339] | – | – | > 10
43 | CC(C)CN/C(=N/C(=O)c1cccc(C#N)c1)Nc1cc(-c2ccc(F)cc2)n[nH]1 [Compound A-508] | – | – | < 10
44 | CC1(N/C(=N/C(=O)c2ccc(Cl)c(F)c2)Nc2cc(-c3cc(F)cc(F)c3)n[nH]2)CC1 [Compound A-358] | – | – | < 10
45 | CCC(C)N/C(=N/C(=O)c1ccc(Cl)c(F)c1)Nc1cc(-c2cc(F)cc(F)c2)n[nH]1 (centres unmarked) [Compound A-356] | – | – | < 10
